We go through 21 molecules from patent US8785459B2, “Quinazoline compounds as kinase inhibitors” (Development Center for Biotechnology, priority 2011, dated 2014).

Common to all, as to type: biochemical
In one assay the target is B-Raf (Homo sapiens (Human), UniProt P15056). The experiment in a line: Raf kinase assay (B-Raf), [33P] incorporation into MEK1(K97R). The conditions noted are these: for inhibition at 1 µM: 1.0 μM compound, read-out: B-Raf inhibition at 1.0 μM. As to the method: (§1) A. Raf Kinase Assays (B-Raf, B-raf (V600E), and C-Raf)
B-Raf, sequence (P15056 whole entry): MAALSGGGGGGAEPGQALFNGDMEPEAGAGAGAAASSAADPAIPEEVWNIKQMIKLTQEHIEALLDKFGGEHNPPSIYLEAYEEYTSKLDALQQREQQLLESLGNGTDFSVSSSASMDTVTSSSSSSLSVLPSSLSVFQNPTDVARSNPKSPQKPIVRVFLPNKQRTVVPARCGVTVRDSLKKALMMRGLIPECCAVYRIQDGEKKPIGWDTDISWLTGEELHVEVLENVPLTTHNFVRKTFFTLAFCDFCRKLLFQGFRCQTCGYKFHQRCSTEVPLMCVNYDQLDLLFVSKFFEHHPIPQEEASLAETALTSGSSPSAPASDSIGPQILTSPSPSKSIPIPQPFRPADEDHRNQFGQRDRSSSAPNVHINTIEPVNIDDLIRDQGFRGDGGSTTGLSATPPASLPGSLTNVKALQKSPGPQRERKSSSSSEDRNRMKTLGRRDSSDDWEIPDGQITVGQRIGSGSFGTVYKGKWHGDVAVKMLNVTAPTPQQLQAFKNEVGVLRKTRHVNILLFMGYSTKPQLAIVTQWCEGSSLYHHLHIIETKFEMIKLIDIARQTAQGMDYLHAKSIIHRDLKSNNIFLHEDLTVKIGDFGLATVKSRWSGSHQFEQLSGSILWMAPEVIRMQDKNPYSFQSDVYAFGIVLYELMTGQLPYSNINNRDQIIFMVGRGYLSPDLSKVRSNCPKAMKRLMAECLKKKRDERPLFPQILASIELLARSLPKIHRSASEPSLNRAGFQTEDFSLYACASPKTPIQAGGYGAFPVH
(§2) Inhibition of kinase activity by test compound disclosed herein was estimated by quantifying the amount of [^33P] incorporation of substrate in the presence of test compound. Standard assay conditions were 2 ng of recombinant C-Raf or 5 ng of recombinant B-Raf or 5 ng of recombinant B-Raf (V600E) kinase (Upstate Biotechnology) with 500 ng MEK1(K97R) in assay buffer {8 μM ATP, 0.5 μCi [^33P]ATP (specific activity 3000 Ci/mmol, PerkinElmer), 50 mM Tris/HCl (pH7.5), and 1 mM EGTA, 1 mM Na3VO4, 1% 2-mercaptoethanol, 0.1% Brij 35, and 0.2 mg/ml BSA} at a final volume of 25 μL. Reactions were incubated at 30° C. for 30 min and stopped by adding 3% phosphoric acid, harvested onto a 96-well GF/B UniFilter (PerkinElmer) using a unifilter harvester (PerkinElmer), and counted with a TopCount microplate scintillation counter (PerkinElmer). The IC50 values of inhibitors were determined after carrying out assays at 3-fold serially diluted concentrations of each compound in duplication. The results were analyzed using linear regression software (GraphPad Prism 4; GraphPad Software Inc.). Inhibition of B-Raf, B-raf (V600E), and C-Raf kinases by various compounds listed in Table 1 are summarized and shown in Table 3 below. IC50 value is defined as the concentration of the test compound which achieves a half-maximal inhibition of the kinase activity.

In another assay the target is B-Raf (V600E) (Homo sapiens (Human), UniProt P15056, V600E). In words: Raf kinase assay (B-Raf (V600E)), [33P] incorporation into MEK1(K97R). As to the method: as §1, §2
B-Raf (V600E), sequence (P15056 whole entry V600E): as the sequence (P15056 whole entry) above, with V600E counted along it
The target of another assay is C-Raf (Homo sapiens (Human), UniProt P04049). The experiment in a line: Raf kinase assay (C-Raf), [33P] incorporation into MEK1(K97R). Here is the method:
as §1, §2

Bounds are passed on as bounds.

The IC50 is the point on the concentration scale where inhibition reaches its midpoint. In general, inhibition refers to the drop in the measured response relative to a control, in per cent.

C-Raf, sequence (P04049 whole entry): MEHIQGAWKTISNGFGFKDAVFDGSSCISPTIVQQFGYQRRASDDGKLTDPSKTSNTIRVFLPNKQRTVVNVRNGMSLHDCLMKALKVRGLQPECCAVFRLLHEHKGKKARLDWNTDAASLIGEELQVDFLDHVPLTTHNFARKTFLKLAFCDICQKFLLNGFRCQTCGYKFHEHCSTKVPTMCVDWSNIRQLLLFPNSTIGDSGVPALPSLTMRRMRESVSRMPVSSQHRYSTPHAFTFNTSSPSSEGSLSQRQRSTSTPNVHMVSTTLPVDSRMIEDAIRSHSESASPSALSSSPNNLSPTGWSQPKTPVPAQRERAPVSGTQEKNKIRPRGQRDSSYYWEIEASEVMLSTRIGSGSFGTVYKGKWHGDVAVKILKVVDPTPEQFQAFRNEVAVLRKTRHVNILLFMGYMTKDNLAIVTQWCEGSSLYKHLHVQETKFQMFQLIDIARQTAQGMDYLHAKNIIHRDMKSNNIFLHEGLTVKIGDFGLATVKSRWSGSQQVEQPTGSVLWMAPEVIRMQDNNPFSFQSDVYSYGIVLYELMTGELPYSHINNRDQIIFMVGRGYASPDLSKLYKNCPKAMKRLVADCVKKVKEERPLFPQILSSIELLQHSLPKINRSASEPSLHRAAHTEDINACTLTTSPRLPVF

Consider `COc1cc(-c2ccc3ncnc(Nc4ccc(Cl)cc4F)c3c2)ccc1O` [Compound 16, 4-(4-(4-chloro-2-fluorophenylamino)quinazolin-6-yl)-2-methoxyphenol], for which the IC50 on B-Raf was 817 nM; on B-Raf (V600E) it was 810 nM; against C-Raf, 1250 nM. Besides, the inhibition at 1 µM at B-Raf was determined as 51.5%.

Regarding `COc1cc(-c2ccc3ncnc(Nc4ccc(C)cc4F)c3c2)ccc1O` [Compound 17, 4-(4-(2-fluoro-4-methylphenylamino)quinazolin-6-yl)-2-methoxyphenol], the figures for the half-maximal inhibitory concentration (IC50) on B-Raf, against B-Raf (V600E) and at C-Raf were 647 nM, 619 nM and 1910 nM, respectively. Moreover, the inhibition at 1 µM on B-Raf was found to be 59.4%.

Turning to `COc1cc(-c2ccc3ncnc(Nc4cccc(C(F)(F)F)c4)c3c2)ccc1O` [Compound 18, 2-methoxy-4-(4-(3-(trifluoromethyl)phenylamino)quinazolin-6-yl)phenol], the figures for the half-maximal inhibitory concentration (IC50) against B-Raf, on B-Raf (V600E) and on C-Raf were 3140 nM, 1170 nM and more than 10000 nM, respectively. Besides, the inhibition at 1 µM on B-Raf was 48.9%.

`COc1cc(-c2ccc3ncnc(Nc4ccc(F)cc4F)c3c2)ccc1O` [Compound 20, 4-(4-(2,4-difluorophenylamino)quinazolin-6-yl)-2-methoxyphenol]: the half-maximal inhibitory concentration (IC50) is 594 nM against B-Raf, 471 nM at B-Raf (V600E) and 882 nM against C-Raf. Besides, the inhibition at 1 µM at B-Raf is 55.3%.

Take `COc1cc(-c2ccc3ncnc(Nc4ccc(Cl)cc4O)c3c2)ccc1O` [Compound 21, 4-(4-(4-chloro-2-hydroxyphenylamino)quinazolin-6-yl)-2-methoxyphenol]: the results for the concentration for half-maximal inhibition (IC50) against B-Raf, against B-Raf (V600E) and against C-Raf were 1120 nM, 1360 nM and 810 nM, respectively. Further, at B-Raf, the inhibition at 1 µM worked out at 47.6%.

Turning to `COc1cccc(Nc2ncnc3ccc(-c4ccc(O)c(OC)c4)cc23)c1` [Compound 22, 2-methoxy-4-(4-(3-methoxyphenylamino)quinazolin-6-yl)phenol], the results for the IC50 against B-Raf, on B-Raf (V600E) and against C-Raf were 719 nM, 411 nM and 1390 nM, respectively. Also, the inhibition at 1 µM on B-Raf was 63.3%.

Regarding `COc1cc(-c2ccc3ncnc(Nc4ccccc4O)c3c2)ccc1O` [Compound 23, 4-(4-(2-hydroxyphenylamino)quinazolin-6-yl)-2-methoxyphenol], the half-inhibitory concentration (IC50) was 669 nM against B-Raf, 377 nM on B-Raf (V600E) and 3090 nM against C-Raf. Further, at B-Raf, the inhibition at 1 µM worked out at 62.6%.

Turning to `COc1ccc(Nc2ncnc3ccc(-c4ccc(O)c(OC)c4)cc23)cc1O` [Compound 25, 4-(4-(3-hydroxy-4-methoxyphenylamino)quinazolin-6-yl)-2-methoxyphenol], the figures for the concentration for half-maximal inhibition (IC50) on B-Raf, at B-Raf (V600E) and against C-Raf were 1110 nM, 842 nM and 1560 nM, respectively. In addition, the inhibition at 1 µM on B-Raf came to 54.9%.

For the molecule `COc1cc(-c2ccc3ncnc(Nc4cccc(S(N)(=O)=O)c4)c3c2)ccc1O` [Compound 27, 3-(6-(4-hydroxy-3-methoxyphenyl)quinazolin-4-ylamino)benzenesulfonamide], the concentration for half-maximal inhibition (IC50) on B-Raf worked out at 415 nM; at B-Raf (V600E), 453 nM; on C-Raf it was 887 nM. For the same molecule, the inhibition at 1 µM on B-Raf is 77.2%.

For `COc1cc(-c2ccc3ncnc(Nc4ccc(C)c(O)c4)c3c2)ccc1O` [Compound 29, 4-(4-(3-hydroxy-4-methylphenylamino)quinazolin-6-yl)-2-methoxyphenol], the results for the IC50 on B-Raf, against B-Raf (V600E) and at C-Raf were 177 nM, 212 nM and 1060 nM, respectively. On B-Raf, the inhibition at 1 µM was 85.7%.

For `COc1cc(-c2ccc3ncnc(Nc4ccccc4C(N)=O)c3c2)ccc1O` [Compound 33, 2-(6-(4-hydroxy-3-methoxyphenyl)quinazolin-4-ylamino)benzamide], the IC50 on B-Raf was 667 nM; on B-Raf (V600E) it was 2340 nM; on C-Raf, more than 3000 nM. The inhibition at 1 µM on B-Raf was 53.6%.

For the molecule `COc1cc(-c2ccc3ncnc(Nc4ccc(C(=O)O)cc4O)c3c2)ccc1O` [Compound 34, 3-hydroxy-4-(6-(4-hydroxy-3-methoxyphenyl)quinazolin-4-ylamino)benzoic acid], the IC50 against B-Raf turned out to be 494 nM; against B-Raf (V600E), 572 nM; against C-Raf, 580 nM. Also, at B-Raf, the inhibition at 1 µM turned out to be 65%.

As for `COc1cc(-c2ccc3ncnc(Nc4cccc(C(N)=O)c4)c3c2)ccc1O` [Compound 35, 3-(6-(4-hydroxy-3-methoxyphenyl)quinazolin-4-ylamino)benzamide], the IC50 against B-Raf turned out to be 317 nM; against B-Raf (V600E), 290 nM; against C-Raf, 970 nM. At B-Raf, the inhibition at 1 µM was determined as 74.9%.

In the case of `COc1cc(-c2ccc3ncnc(Nc4cccc([N+](=O)[O-])c4)c3c2)ccc1O` [Compound 36, 2-methoxy-4-(4-(3-nitrophenylamino)quinazolin-6-yl)phenol], the half-maximal inhibitory concentration (IC50) at B-Raf is 256 nM; at B-Raf (V600E), 675 nM; at C-Raf it was 6990 nM. Besides, the inhibition at 1 µM on B-Raf stood at 76.3%.

As for `COc1cc(-c2ccc3ncnc(Nc4cccc(N)c4)c3c2)ccc1O` [Compound 37, 4-(4-(3-aminophenylamino)quinazolin-6-yl)-2-methoxyphenol], the concentration for half-maximal inhibition (IC50) against B-Raf stood at 573 nM; at B-Raf (V600E), 849 nM; on C-Raf, 1310 nM. In addition, the inhibition at 1 µM at B-Raf was determined as 65.8%.

Turning to `COc1cc(-c2ccc3ncnc(Nc4ccc5c(c4)OCO5)c3c2)ccc1O` [Compound 38, 4-(4-(benzo[d][1,3]dioxol-5-ylamino)quinazolin-6-yl)-2-methoxyphenol], the IC50 was 660 nM against B-Raf, 707 nM at B-Raf (V600E) and 1400 nM against C-Raf. Further, at B-Raf, the inhibition at 1 µM was 57.5%.

Regarding `COc1cc(-c2ccc3ncnc(Nc4ccc5cn[nH]c5c4)c3c2)ccc1O` [Compound 39, 4-(4-(1H-indazol-6-ylamino)quinazolin-6-yl)-2-methoxyphenol], the IC50 at B-Raf was 1030 nM; against B-Raf (V600E) it was 1440 nM; at C-Raf it was 3280 nM. Besides, on B-Raf, the inhibition at 1 µM came out at 51.6%.

As to `COc1cc(-c2cc3c(Nc4ccc(C)c(O)c4)ncnc3cc2OC)ccc1O` [Compound 41, 4-(4-(3-hydroxy-4-methylphenylamino)-7-methoxyquinazolin-6-yl)-2-methoxyphenol], the IC50 at B-Raf is 266 nM; against B-Raf (V600E), 349 nM; on C-Raf, more than 10000 nM. Further, the inhibition at 1 µM at B-Raf was determined as 82.2%.

In the case of `COc1cc(-c2ccc3ncnc(Nc4cccc(NC(C)=O)c4)c3c2)ccc1O` [Compound 44, N-(3-(6-(4-hydroxy-3-methoxyphenyl)quinazolin-4-ylamino)phenyl)acetamide], the IC50 amounted to 489 nM against B-Raf, 382 nM at B-Raf (V600E) and 685 nM on C-Raf. The inhibition at 1 µM at B-Raf stood at 65.3%.

On to `COc1cc(-c2ccc3ncnc(Nc4cccc(NC(=O)C(F)(F)F)c4)c3c2)ccc1O` [Compound 45, 2,2,2-trifluoro-N-(3-(6-(4-hydroxy-3-methoxyphenyl)quinazolin-4-ylamino)phenyl)acetamide], for which the values for the IC50 on B-Raf, against B-Raf (V600E) and at C-Raf were 382 nM, 358 nM and 835 nM, respectively. The inhibition at 1 µM at B-Raf is 73.9%.

As to `COc1cc(-c2ccc3ncnc(Nc4ccc(S(N)(=O)=O)cc4)c3c2)ccc1O` [Compound 46, 4-(6-(4-hydroxy-3-methoxyphenyl)quinazolin-4-ylamino)benzenesulfonamide], the 50% inhibitory concentration (IC50) stood at 624 nM against B-Raf, 576 nM against B-Raf (V600E) and 1960 nM against C-Raf. In addition, on B-Raf, the inhibition at 1 µM was 64.4%.
